Test results: patent US20250213652A1, “COMPOSITIONS AND THEIR USE IN METHODS FOR TREATING INTESTINAL INFLAMMATION” (REVOLO BIOTHERAPEUTICS LIMITED, priority 2022, published 2025)

Tests used:
RAG2−/− mice = test: CD4+CD45RBhigh T cell adoptive transfer murine model of intestinal inflammation; assay type: in vivo
Source text: In the present study, intestinal inflammation is initiated with syngeneic splenic CD4^+CD45RB^high T cell adoptive transfer into T and B cell deficient recipient mice.^37 The CD4^+CD45RB^high T cell population contains mainly naïve T cells primed for activation that are capable of inducing chronic small bowel and colonic inflammation. This animal model allows the modification of key experimental variables, including both innate and adaptive immune cell populations, to answer biologically relevant questions relating to disease pathogenesis. […]
From Day 21 until the end of the experiment on Day 49, animals are monitored daily for clinical signs of colitis to include: bodyweight loss, loose stools and/or diarrhea. On Day 49, animals are culled, the colon dissected out, and colon weight and length measured. […]
From Day 21 until the end of the experiment, animals are monitored daily for clinical signs of colitis to include bodyweight loss, loose stools and/or diarrhea.
(§1) At termination, colon from half the animals in each group are transferred in tissue fixative, then processed for paraffin-embedding in a ‘swiss roll’ format. These samples are sectioned and stained with hematoxylin and eosin (H&E) and up to two sections per animal are scored by a qualified histopathologist according to a semi-quantitative scoring system. […]

C57-bl/6 mice = test: Dextran sulphate sodium (DSS)-induced murine model of ulcerative colitis; assay type: in vivo; conditions: 5% DSS
Method: In the present study, the DDS murine model of UC will be used to evaluate the efficacy of BiP analogs such as IRL201805 (SEQ ID NO:1).
Adult C57-bl/6 mice are randomly allocated to experimental groups and allowed to acclimatize for one week. From Day-2, treatments are administered in accordance with the administration schedule below. On Day 0, drinking water is replaced by a 5% dextran sulphate sodium (DSS) in water (excluding group 1 which remains on normal drinking water throughout). Animals are given ad libitum access to the 5% DSS solution. From Day 0 until the end of the experiment on Day 7, animals are monitored daily for clinical signs of colitis to include: bodyweight loss, loose stools and/or diarrhea and presence of occult or gross blood in the stools. […]
From Day 0 until the end of the experiment, animals are monitored daily for clinical signs of colitis to include bodyweight loss, loose stools and/or diarrhea and presence of blood, occult or gross, in the stools.
as §1

[1] = system: CD69+/CD39+ regulatory T cells (Tregs); test: Colon punch biopsies from IBD patients, flow cytometry of CD69+/CD39+ Tregs; assay type: cell-based, human; conditions: 20 μg/mL, 12-14 hours, inflamed colonic tissue compared to non-inflamed tissue from the same patient
Method: FIG. 6A-E provides an outline of the procedure used to assess the effects of human primary immune cells ex vivo within inflamed and non-inflamed colon tissue treated with IRL201805.
(§2) In the present study, punch biopsies (2 mm^2) of inflamed and non-inflamed colon tissues were obtained from each consenting IBD patient with hospital ethical approval, as illustrated in FIG. 6A-E. Tissue biopsies were subsequently incubated for 12-14 hours with or without IRL201805 (20 μg/mL) and assessed for CD69+/CD39+ regulatory T cells (Tregs).

p-STAT5 [2] = test: Colon punch biopsies from IBD patients, p-STAT5 by flow cytometry; assay type: cell-based, human; conditions: data not shown
Method: as §2

CD69 [3] = test: Surface expression of CD69 and CD39 on Tregs from PBMCs, flow cytometry; assay type: cell-based, human; conditions: 20 μg/mL, 20-72 h at 37° C., PBMCs from two healthy donors
Method: FIG. 8 depicts the mean fluorescent intensity of surface expression of CD69 and CD39 on Tregs from peripheral blood mononuclear cells (PBMCs) cultured with 20 μg/mL IRL201805 for 20-72 h at 37° C.
In the present study, PBMCs were isolated from two healthy donors. PBMCs were then incubated with IRL201805 (20 μg/mL) for 20-72 h at 37° C. Flow cytometry was used to measure mean fluorescent intensity and assess surface expression of CD69 and CD39 on Tregs from the PBMCs.

JAK3 = test: RNAseq gene transcript levels, JAK3; assay type: cell-based, human; conditions: 20 μg/mL, 24 hour post treatment
Method: (§3) FIG. 9A-B illustrates the effects of 20 µg/mL IRL201805 on JAK-STAT signaling pathway at the transcript and protein level. FIG. 9A provides the RNAseq analysis of gene transcript levels of key signaling genes involved in CD69 activation. FIG. 9B provides the immunoblot of p-STAT5 levels in cell lysates from untreated and IRL1805 treated PBMCs.
(§4) In the present study, the effects of IRL201805 on JAK-STAT signaling pathway were assessed at the transcript and protein level. PBMCs were isolated from a healthy subject and treated for 24 h with 20 μg/mL IRL201805.
(§5) RNAseq analysis was used to assess gene transcript levels of key signaling genes involved in CD69 activation.

SOCS3 = test: RNAseq gene transcript levels, SOCS3; assay type: cell-based, human; conditions: 20 μg/mL, 24 hour post treatment
Method: as §3, §4, §5

STAT5A = test: RNAseq gene transcript levels, STAT5A; assay type: cell-based, human; conditions: monocytes from three healthy individuals
Method: as §3, §4, §5

STAT5B = test: RNAseq gene transcript levels, STAT5B; assay type: cell-based, human; conditions: monocytes from three healthy individuals
Method: as §3
In the present study, the effects of IRL201805 on JAK-STAT signaling pathway were assessed at the transcript and protein level. […]
as §5

p-STAT5 [4] = test: Immunoblot of p-STAT5 in PBMC cell lysates; assay type: cell-based, human; conditions: 20 μg/mL, 24 hours, compared to untreated PBMCs
Method: as §3, §4
Immunoblotting of PBMC cell lysates with recombinant anti-STAT5 (phospho Y694) antibody [E208] (ab32364) (Abcam, ab32364) was used to assess the p-STAT5 levels in from untreated and IRL1805 treated PBMCs.

PBMCs = test: p-STAT5 status and FoxP3 in T cell subsets of treated PBMCs (Table 4); assay type: cell-based
Source text: In Tregs, CD69 is thought to promote CD39 surface expression, FoxP3 transcription, and STAT5 phosphorylation leading to STAT3 inhibition. The present study assessed the effects of IRL1805 on p-STAT5. […] Treatment of PBMCs with IRL201805 led to changes in p-STAT5 status of CD4/CD8 T cells and increased 3-fold the level of FoxP3 transcription (see Table 4).

galectin-1 (Gal-1) = test: TMT quantitative proteomics of monocyte cell surface, Gal-1; assay type: cell-based; conditions: human monocytes (n=4), 1 hour
Source text: (§6) FIG. 10B provides a bar graph showing the effects of IRL201805 on CD69 ligands, galectin-1 (Gal-1) and S100A8/A9, as detected by TMT quantitative proteomics.
(§7) The potential ligands, Gal-1 and S100A8/A9, are known to bind to CD69.43 In order to examine the expression of and influence the ability of T cells to sustain a Treg phenotype, the present study investigated the effects of 1805 on the expression of Gal-1 and S100A8/A9 in APCs (monocytes). Human monocytes isolated from healthy individuals (n=4) were exposed to 1805 for 1 hour at levels of both Gal-1 and S100A8/A9 proteins.
(§8) The abundance of Gal-1 and S100A8/A9 protein at the cell surface were detected by tandem mass tag (TMT) quantitative proteomics.

S100A8/A9 = test: TMT quantitative proteomics of monocyte cell surface, S100A8/A9; assay type: cell-based; conditions: human monocytes (n=4), 1 hour
Source text: as §6, §7, §8

S100A9 = test: Mass spec analysis of S100A9 post-translational modification in monocytes; assay type: cell-based; conditions: human monocytes
Source text: as §6, §7

CD69 [5] = test: Surface CD154 and CD69 activation markers on T-lymphocytes from PBMCs; assay type: cell-based, human; conditions: 20 μg/mL, 20 hours at 37° C., PBMCs from four healthy donors, p=0.008
Source text: FIG. 11A-C provides bar graphs showing the effects of IRL201805 on the expression of surface CD154 and CD69 activation markers on T-lymphocytes from PBMCs: Tregs (FIG. 11A); effector T cells (Teffs; FIG. 11B); and CD8 T cells (FIG. 11C). Results are from PBMCs isolated from four healthy donors. Mean±SD shown. P=values represent paired sample t-test. NS=not significant.
The present study assessed the effects of 1805 on the expression of surface CD154 and CD69 activation markers on T-lymphocytes from PBMC of Tregs, Teffs, and CD8 T cells. PBMCs isolated from four healthy donors were cultured with or without 20 μg/mL IRL201805 for 20 hours at 37° C.

STAT3 phosphorylation = STAT3 phosphorylation in human lymphocytes (previous unpublished data); assay type: cell-based

IRL201805: a modified analog of GRP78 (BiP analog, SEQ ID NO:1) being developed for the treatment of autoimmune disease
clinical signs of colitis (bodyweight loss, loose stools and/or diarrhea) (RAG2−/− mice; IV from Day 21, dose TBC): significant reduction in clinical signs of colitis
histopathology severity scores (RAG2−/− mice; T cell transfer colitis, colon sections H&E, Day 49): significant reduction in severity scores
clinical signs of colitis (bodyweight loss, loose stools and/or diarrhea) (C57-bl/6 mice; 1 mg/kg IV Day −2, 0, 3, 6): significant reduction in clinical signs of colitis
histopathology severity scores (C57-bl/6 mice; 1 mg/kg IV, colon sections H&E, Day 7): significant reduction in severity scores
increase in double positive CD69+/CD39+ Tregs [1]: 20%
p-STAT5 in subsets of immune cells by flow cytometry (p-STAT5 [2]): increased p-STAT5
duration of sustained CD69 expression on CD154- cells (CD69 [3]): at least 72 h
increase of JAK3 gene transcript level (JAK3): approximately 10 fold
increase of SOCS3 gene transcript level (SOCS3): approximately 10 fold
transcript levels of STAT5A (STAT5A): did not affect
transcript levels of STAT5B (STAT5B): did not affect
p-STAT5 levels by immunoblot (p-STAT5 [4]): increased levels
p-STAT5 in subsets of immune cells (PBMCs; PBMCs): increased p-STAT5
increase of the level of FoxP3 transcription (PBMCs; PBMCs, versus untreated): 3 fold
% CD4+ve (PBMCs; treated PBMCs): 7.1%
% CD8+ve (PBMCs; treated PBMCs): 3.2%
% FoxP3 + Tregs (PBMCs; treated PBMCs): 0.9%
CD25hi/CD127lo Tregs (PBMCs; treated PBMCs): 3.2
Gal-1 expression on the cell surface (galectin-1 (Gal-1)): not altered
S100A8/A9 expression on the cell surface (S100A8/A9): not altered
increase of phosphorylation of S100A9 (S100A9; 1 hour): 58%
trimethylation post-translational modifications on threonine 113 on S100A9 (S100A9; mass spec): increased trimethylation
increase of CD69 on the cell surface of Tregs (CD69 [5]): 2 fold

binding immunoglobulin protein [BiP]
STAT3 phosphorylation (STAT3 phosphorylation): inhibit STAT3 phosphorylation
